# Experiments:
# [1] = Drug concentration in liquid formulations (liquid chromatography, HPLC assay); assay type: physicochemical
# [2] = test system: human coronary artery smooth muscle cells; experiment: Anti-proliferative activity in non-synchronized cultured human coronary artery smooth muscle cells stimulated with two percent fetal bovine serum; assay type: cell-based; settings: agent added to cells treated with rapamycin
# From the text: The multiple curves represent various concentrations of mycophenolic acid ranging from zero to one thousand nanomolar concentrations.
# FIG. 58 illustrates, in graphical format, the anti-proliferative activity of cladribine in non-synchronized cultured human coronary artery smooth muscle cells stimulated with two percent fetal bovine serum.
# The multiple curves represent various concentrations of cladribine ranging from zero to nine hundred nanomolar concentrations.
# [3] = test system: human coronary artery smooth muscle cells; experiment: Antiproliferative effects of PX867 on cultured human coronary artery smooth muscle cells; assay type: cell-based
# From the text: A PI3 kinase inhibitor can affect restinosis when administered by local or systemic delivery alone or in combination with sirolimus. FIGS. 87 and 88 illustrate the antiproliferative effects of PX867 on cultured human coronary artery smooth muscle cells alone (FIG. 87) or in combination with sirolimus (FIG. 88). […] Curve 8702 illustrates the percent inhibition for various concentrations. In FIG. 88, the six curves 8802, 8804, 8806, 8808, 8810 and 8812 represent various concentrations of PX867 with various concentrations of sirolimus. […] More specifically, curve 8812 illustrates the percent inhibition for a 240 nM PX-867 concentration. […] This may be compared to curve 8804 which represents a 15 nM PX-867 concentration. As one can see, the percent inhibition increases as the concentration of sirolimus increases. Accordingly, a potent PI3 kinase inhibitor, such as PX-867, can improve the inhibition of coronary artery smooth muscle cell proliferation either as a stand alone treatment or via combination with another restenotic agent, such as sirolimus.
# [4] = test system: human coronary artery smooth muscle cells; experiment: Anti-proliferative activity in synchronized cultured human coronary artery smooth muscle cells stimulated with two percent fetal bovine serum; assay type: cell-based; settings: for effect of the added agent on the anti-proliferative rapamycin dose response curve: agent added to cells treated with rapamycin
# From the text: (§1) The multiple curves represent various concentrations of topotecan ranging from zero to three hundred nanomolar concentrations.
# (§2) The multiple curves represent various concentrations of etoposide ranging from zero to eight hundred nanomolar concentrations.
# The multiple curves represent various concentrations of Panzem® ranging from zero to 100 micromolar concentrations.
# [5] = test system: human coronary artery smooth muscle cell; experiment: MTS assay of Panzem®; assay type: cell-based; settings: concentrations up to 30,000.00 nanomolar
# From the text: Typically, a control is utilized to determine baseline toxicity.
# [6] = Porcine drug elution PK study of the dual drug eluting coating; assay type: in vivo; settings: after eight (8) days of implantation; single-layer configuration of FIG. 83
# From the text: Another critical parameter for the performance of the thrombus resistance of a device coated with cilostazol is the duration of the drug release from the coating. This is of particular significance in the two weeks after device implantation. In the porcine drug elution PK studies of the dual drug eluting coating, both cilostazol and sirolius were slowly released from the coating, resulting in a sustained drug release profile. The purpose of the porcine PK study is to assess the local pharmacokinetics of a drug eluting stent at a given implantation time. Normally three stents are implanted in three different coronary arteries in a pig for a given time point and then retrieved for total drug recovery analysis. The stents are retrieved at predetermined time points; namely, 1, 3 and 8 days. The stents are extracted and the total amount of drug remaining on the stents is determined by analysis utilizing HPLC (high performance liquid chromatography) for total drug amount. The difference between the original amount of drug on the stent and the amount of drug retrieved at a given time represents the amount of drug released in that period. The continuous release of drug into surrounding arterial tissue is what prevents the neointimal growth and restenosis in the coronary artery. A normal plot represents the percentage of total drug released (%, y-axis) vs. time of implantation (day, x-axis). […]
# [7] = In vitro release of sirolimus and cilostazol from stent coating; assay type: physicochemical; settings: single-layer configuration of FIG. 83
# [8] = Cell viability assay (cytotoxicity); assay type: cell-based
# From the text: as §1, §2
# [9] = Protocol: The concentrations are determined by liquid chromatography and are presented as weight by volume figures.
# In making the first formulation, 100 mg of paclitaxel is added to 400 μl of ethanol in a pre-weighed 20 ml scintillation vial. The mixture of paclitaxel and ethanol is vortexed and heated in a 60 degree C. bath for ten minutes. Once the drug is completely solubilized, 20 ml of PEG 400 is then added to make the final paclitaxel concentration 5 mg/ml. […] In a separate experiment, a series of 20 ml scintillation vials containing Vitamin E TPGS are heated or warmed up in a 50 degree C. water bath for ten minutes. Concurrently, distilled water is also warmed in a 50 degree C. water bath. Once the Vitamin E TPGS was melted in each vial, the distilled water is added into the Vitamin E TPGS vials and vortexed for one minute and left to stand in the water bath for two hours. The final concentrations of Vitamin E TPGS in water were one, five and fifteen percent. The paclitaxel stock solution (5 mg/ml) described herein was then mixed with the Vitamin E TPGS solutions to make the final paclitaxel formulations.
# [10] = test system: human coronary artery smooth muscle cell; experiment: Inhibition of human coronary artery smooth muscle cell proliferation by trichostatin A, cell culture; assay type: cell-based; settings: in vitro cell culture; read-out: anti-proliferative IC50
# From the text: FIG. 51 is a graph of the inhibition of coronary artery smooth muscle cells by trichostatin A in a cell culture study.
# [11] = test system: tumor cell lines; settings: Woo et al. 2002; cited from earlier work
structure (smiles),measurement,setting,value
CO[C@H]1C[C@@H]2CC[C@@H](C)[C@@](O)(O2)C(=O)C(=O)N2CCCC[C@H]2C(=O)O[C@H]([C@H](C)C[C@@H]2CC[C@@H](OC(=O)C(C)(CO)CO)[C@H](OC)C2)CC(=O)[C@H](C)/C=C(\C)[C@@H](O)[C@@H](OC)C(=O)[C@H](C)C[C@H](C)/C=C/C=C/C=C/1C [CCI-779],concentration in the final solution (HPLC assay),"[1]; ethanol, Vitamin E TPGS and water, ethanol less than two percent",15000 µg/mL
"Nc1nc(Cl)nc2c1ncn2[C@H]1C[C@H](O)[C@@H](CO)O1 [Cladribine, 2-chlorodeoxyadenosine]",effect of the added agent on the anti-proliferative rapamycin dose response curve,[2],potentiate the anti-proliferative activity of rapamycin
COC[C@H]1OC(=O)/C(=C\N2CCCC2)C2=C(O)C(=O)C3=C([C@H](OC(C)=O)C[C@]4(C)C(=O)CC[C@@H]34)[C@]21C [PX-867],inhibition of coronary artery smooth muscle cell proliferation,"[3]; PX867 alone, concentration of about 10^−6",close to one hundred percent inhibition
same,combination effect with sirolimus on percent inhibition,[3]; PX-867 15-240 nM with various concentrations of sirolimus,strong synergistic effect between PX-867 and sirolimus
"COc1cc2c(cc1O)CC[C@@H]1[C@@H]2CC[C@]2(C)[C@@H](O)CC[C@@H]12 [Panzem®, 2-methoxyestradiol]",effect of the added agent on the anti-proliferative rapamycin dose response curve,[4],increases the percent of inhibition of rapamycin alone
same,inhibition of human coronary artery smooth muscle cell proliferation in vitro,[4]; agent alone,extremely effective inhibitor
same,human coronary artery smooth muscle cell survival (MTS assay),[5],do not reduce human coronary artery smooth muscle cell survival
"O=C1CCc2cc(OCCCCc3nnnn3C3CCCCC3)ccc2N1 [cilostazol, 6[4-(1-cyclohexyl-1H-tetrazol-5-yl)-butoxy]-3,4-dihydro-2-(1H)-quinolinone]",drug remaining in the drug coating,[6],~80%
same,in vitro release from the coating,[7],~35%
COc1cc([C@@H]2c3cc4c(cc3[C@@H](O[C@@H]3O[C@@H]5CO[C@@H](C)O[C@H]5[C@H](O)[C@H]3O)[C@H]3COC(=O)[C@H]23)OCO4)cc(OC)c1O [etoposide],effect of the added agent on the anti-proliferative rapamycin dose response curve,[2],potentiate the anti-proliferative activity of rapamycin
same,cytotoxicity in cell viability assay,[8]; at concentrations up to ten micromolar,non-cytotoxic
COc1c(C)c2c(c(O)c1C/C=C(\C)CCC(=O)O)C(=O)OC2 [mycophenolic acid],effect of the added agent on the anti-proliferative rapamycin dose response curve,[2],potentiates the anti-proliferative activity of rapamycin
CC(=O)O[C@H]1C(=O)[C@@]2(C)[C@H]([C@H](OC(=O)c3ccccc3)[C@]3(O)C[C@H](OC(=O)[C@H](O)[C@@H](NC(=O)c4ccccc4)c4ccccc4)C(C)=C1C3(C)C)[C@]1(OC(C)=O)CO[C@@H]1C[C@@H]2O [paclitaxel],concentration of paclitaxel in a true liquid formulation,[9],up to 2.5 mg/ml
same,concentration relative to the solubility of paclitaxel in water,[9],about 1000 fold
CO[C@H]1C[C@@H]2CC[C@@H](C)[C@@](O)(O2)C(=O)C(=O)N2CCCC[C@H]2C(=O)O[C@H]([C@H](C)C[C@@H]2CC[C@@H](O)[C@H](OC)C2)CC(=O)[C@H](C)/C=C(\C)[C@@H](O)[C@@H](OC)C(=O)[C@H](C)C[C@H](C)/C=C/C=C/C=C/1C [rapamycin],drug remaining in the drug coating,[6],~80%
same,concentration relative to the solubility of sirolimus in water,[1]; 4 mg/ml liquid formulation with PEG 200,about four hundred to about one thousand times higher
CC[C@@]1(O)C(=O)OCc2c1cc1n(c2=O)Cc2cc3c(CN(C)C)c(O)ccc3nc2-1 [topotecan],effect of the added agent on the anti-proliferative rapamycin dose response curve,[4],potentiate the anti-proliferative activity of rapamycin
same,cytotoxicity in cell viability assay,[8]; at concentrations up to one micromolar,non-cytotoxic
CC(/C=C/C(=O)NO)=C\[C@@H](C)C(=O)c1ccc(N(C)C)cc1 [trichostatin A],IC50,[10],~6 nM
same,anti-proliferative IC50's,[11],low nM range

# From patent publication US8557272B2, “Device for local and/or regional delivery employing liquid formulations of therapeutic agents” (Cordis Corporation, priority 2004, dated 2013)
